{
  "source": "patent US5594009A",
  "about": "“Fused pyrrolocarbazoles” (priority 1995, dated 1997)",
  "key": {"[1]": {"test_system": "chick dorsal root ganglion neurons", "experiment": "DRG Neurite Outgrowth Assay", "assay_type": "cell-based", "details": "compound concentration 200 nM; 48 hours", "procedure": "Fused pyrrolocarbazoles promoted nerve fiber (i.e., neurite) outgrowth in explant (i.e., primary) cultures of chick dorsal root ganglion neurons. Dorsal root ganglion (i.e., DRG) nerve fiber outgrowth was increased when a fused pyrrolocarbazole was added to cultures at a concentration of 200 nM (Table IV). Control cultures consisted of: 1) no added NGF or fused pyrrolocarbazole (\"Control\"), or 2) 50 ng/ml NGF, a neurotrophin known to promote neurite extension in DRG cultures (\"NGF\").\nMethods: Dorsal root ganglia were dissected from chick embryos (embryonic day 9) and individual ganglia were plated on poly-1-ornithine and laminin coated plates. A fused pyrrolocarbazole or 50ng/ml NGF was each added to independent cultures after allowing a 1-2 hour cell attachment period. Explants were cultured for 48 hours in serum-free N2 medium supplemented with 0.05% BSA (Bottenstein et al., PNAS USA 76:514-517 (1979)). Cultures were maintained at 37° C. in a humidified atmosphere, 5% CO2 /95% air. Nerve fiber outgrowth was assessed by the density and length of neurites. It should be apparent to those skilled in the art that neurite extension assays are semi-quantitative and involve a visual comparison between control and experimental neuronal cell cultures (Alberts et al., Molecular Biology of the Cell, 2ed. Garland Publishing, Inc., New York (1989)."}, "[2]": {"test_system": "ChAT activity of basal forebrain cultures", "experiment": "Basal Forebrain ChAT Activity Assay", "assay_type": "cell-based, rat", "summary_of_the_method": "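Basal forebrain neurons from E17–18 rat embryos were Dispase-dissociated and plated at 5×10^4 cells/well on poly-ornithine/laminin. Cultures were kept in serum-free N2 medium with 0.05% BSA at 37° C. ChAT activity was measured 5 days after plating as the read-out for compound-induced increase.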"}, "[3]": {"test_system": "choline acetyltransferase (ChAT) activity in dissociated rat embryonic spinal cord culture", "experiment": "Spinal Cord ChAT Activity Assay", "assay_type": "cell-based", "details": "ChAT measured after 48 hours", "protocol": "In these assays, a fused pyrrolocarbazole was directly added to a dissociated spinal cord culture. […] The fused pyrrolocarbazole was added on the same day the dissociated spinal cord cell culture was initiated.\nMethods: Fetal rat spinal cord cells were dissociated, and experiments were performed as described (Smith et al., J. Cell Biology., 101:1608-1621 (1985); Glicksman et al., J. Neurochem. 61:210-221 (1993)). Dissociated cells were prepared from spinal cords dissected from rats (embryonic day 14-15) by standard trypsin dissociation techniques (Smith et al., J. Cell Biology 10:1608-1621 (1985)). Cells were plated at 6×10^5 cells/cm^2 on poly-1-ornithine coated plastic tissue culture wells in serum-free N2 medium supplemented with 0.05% bovine serum albumin (BSA) (Bottenstein et al., PNAS USA 514-517 (1979)). Cultures were incubated at 37° C. in a humidified atmosphere of 5% CO2 /95% air for 48 hours. ChAT activity was measured after 2 days it vitro using a modification of the Fonnum procedure (Fonnum, J. Neurochem. 24:407-409 (1975)) according to McManaman et al. and Glicksman et al. (McManaman et al., Developmental Biology 125:311-320 (1988); Glicksman et al., J. Neurochem. 61:210-221 (1993))."}},
  "data": [
    {"molecule": "O=C1NCc2c1c1c(c3[nH]c4ccccc4c23)Cc2ccccc2-1", "note": "[Compound I-2]", "values": [
      {"measurement": "DRG Neurite Outgrowth", "setting": "[1]", "value": "modest to dense outgrowth of neurites"},
      {"measurement": "ChAT Activity (% of Control)", "setting": "[2]; 100 nM", "value": "inactive"},
      {"measurement": "ChAT Activity (% of Control)", "setting": "[2]; 1000 nM", "value": "inactive"},
      {"measurement": "activity at 0.25 µM", "setting": "[2]; Rattus norvegicus, 120 h, 250 nM, read-out: ChAT Activity (% of Control)", "value": 137, "unit": "%"},
      {"measurement": "activity at 0.5 µM", "setting": "[2]; Rattus norvegicus, 120 h, 500 nM, read-out: ChAT Activity (% of Control)", "value": 137, "unit": "%"},
      {"measurement": "Spinal Cord ChAT Activity, % of Control, untreated cultures", "setting": "[3]", "value": "160 % of Control"}
    ]}
  ]
}
